Data reported in ChEMBL document CHEMBL3745694, “Total synthesis and cytotoxic activities of longamide B, longamide B methyl ester, hanishin, and their analogues” (Bioorg Med Chem Lett, 2016).

Columns and labels:
[1] = tested on: A549; experiment: Cytotoxicity against human A549 cells after 72 hrs by CCK-8 assay; assay type: functional, cell-based; conditions: A549, 72 h
[2] = Cytotoxicity against human PC3 cells after 72 hrs by CCK-8 assay; assay type: functional, cell-based; conditions: PC-3, 72 h

SMILES | IC50 [1] [µM] | IC50 [2] [µM]
COC(=O)CC1CNC(=O)c2cc(Br)c(Br)n21 (racemic) | 82 | 79
O=C(O)CC1CNC(=O)c2ccc(Br)n21 (configuration not stated) | > 200 | > 200
COC(=O)CC1CNC(=O)c2ccc(Br)n21 (configuration not stated) | 65 | 70
COC(=O)Cc1c[nH]c(=O)c2cc(Br)c(Br)n12 | > 200 | > 200
COC(=O)CC1CNC(=O)c2cccn21 (configuration not stated) | > 200 | > 200
COC(=O)Cc1c[nH]c(=O)c2cccn12 | > 200 | > 200
CCOC(=O)CC1CNC(=O)c2ccc(Br)n21 (configuration not stated) | 32 | 29
CCOC(=O)CC1CNC(=O)c2cc(Br)c(Br)n21 (racemic) | 41 | 39
O=C(O)CC1CNC(=O)c2cc(Br)c(Br)n21 (racemic) | > 200 | > 200
CO[C@@]12[C@H](COC(N)=O)C3=C(C(=O)C(C)=C(N)C3=O)N1C[C@@H]1N[C@@H]12 [MITOMYCIN] | 1.7 | 1.4
COC(=O)Cc1c[nH]c(=O)c2ccc(Br)n12 | 165 | 176
